# Reference: article PMC10178848, “Modulating fast skeletal muscle contraction protects skeletal muscle in animal models of Duchenne muscular dystrophy” (The Journal of Clinical Investigation, 2023)
# Tested on: GRMD plasma proteins
# Format: in vivo, dog
# Conditions: Post-Treatment to GRMD baseline; Decreased in GRMD
compound,measurement,value
O=c1ccc(-c2cnc(OCC(F)(F)F)nc2)nn1Cc1cncc(F)c1 [EDG-5506],Collagenase 3 (MMP13): Change from GRMD Baseline (fraction),-0.3148 fraction
same,Collectin-12 (COLEC12): Change from GRMD Baseline (fraction),-0.0046 fraction
same,Complement component C1q receptor (CD93): Change from GRMD Baseline (fraction),-0.1418 fraction
same,Complement decay-accelerating factor (CD55): Change from GRMD Baseline (fraction),0.0605 fraction
same,Contactin-1 (CNTN1): Change from GRMD Baseline (fraction),-0.0113 fraction
same,Corticotropin (POMC): Change from GRMD Baseline (fraction),0.0912 fraction
same,Cytotoxic and regulatory T-cell molecule (CRTAM): Change from GRMD Baseline (fraction),0.2824 fraction
same,Dickkopf-related protein 1 (DKK1): Change from GRMD Baseline (fraction),-0.0925 fraction
same,Dickkopf-related protein 4 (DKK4): Change from GRMD Baseline (fraction),-0.1272 fraction
same,E3 ubiquitin-protein ligase ZNRF3 (ZNRF3): Change from GRMD Baseline (fraction),0.0469 fraction
same,Ephrin type-A receptor 5 (EPHA5): Change from GRMD Baseline (fraction),-0.1823 fraction
same,Ephrin-A2 (EFNA2): Change from GRMD Baseline (fraction),-0.0773 fraction
same,Ephrin-A5 (EFNA5): Change from GRMD Baseline (fraction),-0.1613 fraction
same,Epidermal growth factor receptor (EGFR): Change from GRMD Baseline (fraction),-0.0135 fraction
same,Estradiol 17-beta-dehydrogenase 1 (HSD17B1): Change from GRMD Baseline (fraction),0.0729 fraction
same,"Fatty acid-binding protein, epidermal (FABP5): Change from GRMD Baseline (fraction)",0.3761 fraction
same,Fc receptor-like protein 3 (FCRL3): Change from GRMD Baseline (fraction),-0.0287 fraction
same,GDNF family receptor alpha-2 (GFRA2): Change from GRMD Baseline (fraction),-0.0362 fraction
same,Galectin-8 (LGALS8): Change from GRMD Baseline (fraction),0.1492 fraction
same,Galectin-9 (LGALS9): Change from GRMD Baseline (fraction),-0.0107 fraction
same,Gamma-enolase (ENO2): Change from GRMD Baseline (fraction),-0.0983 fraction
same,Gastrin-releasing peptide (GRP): Change from GRMD Baseline (fraction),0.0411 fraction
same,Glutamate carboxypeptidase 2 (FOLH1): Change from GRMD Baseline (fraction),0.145 fraction
same,Glypican-2 (GPC2): Change from GRMD Baseline (fraction),0.075 fraction
same,Gremlin-1 (GREM1): Change from GRMD Baseline (fraction),0.1318 fraction
same,Growth/differentiation factor 8 (MSTN): Change from GRMD Baseline (fraction),0.065 fraction
same,Growth/differentiation factor 11/8 (GDF11 MSTN): Change from GRMD Baseline (fraction),-0.0539 fraction
same,Hemoglobin (HBA1 HBB): Change from GRMD Baseline (fraction),-0.0209 fraction
same,Heparin cofactor 2 (SERPIND1): Change from GRMD Baseline (fraction),0.014 fraction
same,Hepatitis A virus cellular receptor 2 (HAVCR2): Change from GRMD Baseline (fraction),0.0719 fraction
same,High affinity immunoglobulin gamma Fc receptor I (FCGR1A): Change from GRMD Baseline (fraction),0.0477 fraction
same,Histone-lysine N-methyltransferase EHMT2 (EHMT2): Change from GRMD Baseline (fraction),-0.0469 fraction
same,Hyaluronan and proteoglycan link protein 1 (HAPLN1): Change from GRMD Baseline (fraction),-0.1275 fraction
same,Insulin-like growth factor 1 receptor (IGF1R): Change from GRMD Baseline (fraction),-0.1027 fraction
same,Integrin alpha-V: beta-5 complex (ITGAV ITGB5): Change from GRMD Baseline (fraction),0.0267 fraction
same,Interleukin-4 receptor subunit alpha (IL4R): Change from GRMD Baseline (fraction),0.0286 fraction
same,Interleukin-18-binding protein (IL18BP): Change from GRMD Baseline (fraction),-0.0841 fraction
same,Interstitial collagenase (MMP1): Change from GRMD Baseline (fraction),0.1983 fraction
same,Leucine-rich repeat transmembrane neuronal protein 3 (LRRTM3): Change from GRMD Baseline (fraction),0.0593 fraction
same,Limbic system-associated membrane protein (LSAMP): Change from GRMD Baseline (fraction),-0.0633 fraction
same,Lymphocyte activation gene 3 protein (LAG3): Change from GRMD Baseline (fraction),0.8111 fraction
same,Lysosome membrane protein 2 (SCARB2): Change from GRMD Baseline (fraction),0.1572 fraction
same,MHC class I polypeptide-related sequence B (MICB): Change from GRMD Baseline (fraction),0.6204 fraction
same,Matrilin-2 (MATN2): Change from GRMD Baseline (fraction),-0.1616 fraction
same,Melanoma-derived growth regulatory protein (MIA): Change from GRMD Baseline (fraction),-0.1058 fraction
same,Moesin (MSN): Change from GRMD Baseline (fraction),0.1568 fraction
same,Muellerian-inhibiting factor (AMH): Change from GRMD Baseline (fraction),0.0468 fraction
same,NKG2D ligand 1 (ULBP1): Change from GRMD Baseline (fraction),-0.0033 fraction
same,NT-3 growth factor receptor (NTRK3): Change from GRMD Baseline (fraction),-0.1478 fraction
same,Netrin receptor UNC5C (UNC5C): Change from GRMD Baseline (fraction),-0.0587 fraction
same,Neurogenic locus notch homolog protein 2 (NOTCH2): Change from GRMD Baseline (fraction),0.0095 fraction
same,Neurogenic locus notch homolog protein 3 (NOTCH3): Change from GRMD Baseline (fraction),-0.0751 fraction
same,Nuclear receptor subfamily 1 group D member 1 (NR1D1): Change from GRMD Baseline (fraction),0.0266 fraction
same,Phospholipase A2 (PLA2G1B): Change from GRMD Baseline (fraction),-0.0833 fraction
same,Placenta growth factor (PGF): Change from GRMD Baseline (fraction),-0.1111 fraction
same,Plasminogen (PLG): Change from GRMD Baseline (fraction),0.0803 fraction
same,PolyUbiquitin K63-linked (UBC): Change from GRMD Baseline (fraction),0.2532 fraction
same,Proteasome activator complex subunit 3 (PSME3): Change from GRMD Baseline (fraction),0.0489 fraction
same,Protein S100-A4 (S100A4): Change from GRMD Baseline (fraction),-0.1235 fraction
same,Protein amnionless (AMN): Change from GRMD Baseline (fraction),0.002 fraction
